# Measured values reported in patent US11008314B2, “Compounds and methods for modulating interleukin-2-inducible t-cell kinase” (CORVUS PHARMACEUTICALS, INC., priority 2016, dated 2021).
# Tests used:
# Type in all cases: biochemical
# ITK = ITK (Homo sapiens (Human), UniProt Q08881); test: IC50 against ITK
# JAK3 = JAK3 (Homo sapiens (Human), UniProt P52333); test: IC50 against JAK3
# BTK = BTK (Homo sapiens (Human), UniProt Q06187); test: IC50 against BTK
# TXK = TXK (Homo sapiens (Human), UniProt P42681); test: IC50 against TXK; conditions: for TXK/ITK: ratio of TXK IC50 to ITK IC50
# TXK, sequence (P42681 whole entry, species assumed): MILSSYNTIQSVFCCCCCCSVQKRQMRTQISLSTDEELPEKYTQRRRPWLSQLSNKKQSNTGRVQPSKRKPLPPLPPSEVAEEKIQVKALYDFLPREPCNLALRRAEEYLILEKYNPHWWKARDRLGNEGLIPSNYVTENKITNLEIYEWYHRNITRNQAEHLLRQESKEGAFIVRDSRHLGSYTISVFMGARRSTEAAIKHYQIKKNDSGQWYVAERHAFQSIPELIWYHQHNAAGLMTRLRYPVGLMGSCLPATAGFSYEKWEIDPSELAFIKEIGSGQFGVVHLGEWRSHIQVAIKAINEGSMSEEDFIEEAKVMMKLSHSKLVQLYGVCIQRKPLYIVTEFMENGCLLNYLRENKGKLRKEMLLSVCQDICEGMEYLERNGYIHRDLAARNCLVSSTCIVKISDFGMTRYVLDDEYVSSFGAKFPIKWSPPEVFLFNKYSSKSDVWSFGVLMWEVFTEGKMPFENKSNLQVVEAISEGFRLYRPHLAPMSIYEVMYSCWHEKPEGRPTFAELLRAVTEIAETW
# BTK, sequence (Q06187 whole entry, species assumed): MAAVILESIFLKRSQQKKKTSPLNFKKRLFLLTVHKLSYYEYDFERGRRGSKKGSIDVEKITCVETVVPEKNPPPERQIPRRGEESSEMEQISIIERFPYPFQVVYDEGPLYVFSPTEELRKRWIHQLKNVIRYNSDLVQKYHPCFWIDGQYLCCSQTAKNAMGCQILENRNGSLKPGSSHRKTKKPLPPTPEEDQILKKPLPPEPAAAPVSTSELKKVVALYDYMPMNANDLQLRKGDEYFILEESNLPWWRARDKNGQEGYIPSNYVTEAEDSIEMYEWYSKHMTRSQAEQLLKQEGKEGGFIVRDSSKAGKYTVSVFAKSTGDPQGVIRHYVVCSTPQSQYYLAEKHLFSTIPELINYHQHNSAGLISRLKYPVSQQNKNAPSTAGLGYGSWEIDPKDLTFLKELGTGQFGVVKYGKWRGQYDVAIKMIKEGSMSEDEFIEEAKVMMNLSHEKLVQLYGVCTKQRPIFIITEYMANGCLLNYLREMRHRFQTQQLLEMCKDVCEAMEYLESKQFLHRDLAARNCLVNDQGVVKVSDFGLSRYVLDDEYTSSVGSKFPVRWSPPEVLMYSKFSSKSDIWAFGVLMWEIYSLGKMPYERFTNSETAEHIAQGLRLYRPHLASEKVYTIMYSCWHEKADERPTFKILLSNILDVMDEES
# JAK3, sequence (P52333 whole entry, species assumed): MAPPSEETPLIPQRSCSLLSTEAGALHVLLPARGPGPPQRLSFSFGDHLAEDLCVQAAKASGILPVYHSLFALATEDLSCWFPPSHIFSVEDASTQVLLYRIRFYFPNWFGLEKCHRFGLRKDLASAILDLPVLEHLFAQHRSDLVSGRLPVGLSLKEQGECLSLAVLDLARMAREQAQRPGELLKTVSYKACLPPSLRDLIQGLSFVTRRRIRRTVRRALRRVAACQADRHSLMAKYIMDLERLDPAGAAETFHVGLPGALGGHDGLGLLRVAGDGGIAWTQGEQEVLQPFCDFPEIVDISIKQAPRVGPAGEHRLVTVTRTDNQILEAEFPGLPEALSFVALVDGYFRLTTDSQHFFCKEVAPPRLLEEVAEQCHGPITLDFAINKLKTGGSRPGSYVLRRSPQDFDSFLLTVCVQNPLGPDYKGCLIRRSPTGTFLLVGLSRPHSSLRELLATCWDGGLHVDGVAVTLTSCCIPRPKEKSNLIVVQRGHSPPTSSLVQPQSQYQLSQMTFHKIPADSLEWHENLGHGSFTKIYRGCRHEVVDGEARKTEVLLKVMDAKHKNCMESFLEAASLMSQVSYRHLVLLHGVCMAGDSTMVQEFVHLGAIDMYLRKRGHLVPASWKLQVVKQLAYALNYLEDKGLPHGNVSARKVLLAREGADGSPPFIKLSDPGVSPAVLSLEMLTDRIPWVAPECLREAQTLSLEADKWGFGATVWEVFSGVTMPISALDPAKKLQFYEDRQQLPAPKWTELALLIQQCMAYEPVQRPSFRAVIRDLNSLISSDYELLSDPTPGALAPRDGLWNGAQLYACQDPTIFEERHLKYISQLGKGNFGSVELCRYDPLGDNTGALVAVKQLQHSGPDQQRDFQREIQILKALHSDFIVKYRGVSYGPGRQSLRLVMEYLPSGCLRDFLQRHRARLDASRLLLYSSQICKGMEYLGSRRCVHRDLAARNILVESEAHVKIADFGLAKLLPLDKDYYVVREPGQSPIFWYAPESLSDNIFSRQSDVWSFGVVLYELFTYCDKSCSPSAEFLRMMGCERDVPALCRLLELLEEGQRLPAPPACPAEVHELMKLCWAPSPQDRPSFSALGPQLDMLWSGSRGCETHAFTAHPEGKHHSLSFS
# ITK, sequence (Q08881 whole entry): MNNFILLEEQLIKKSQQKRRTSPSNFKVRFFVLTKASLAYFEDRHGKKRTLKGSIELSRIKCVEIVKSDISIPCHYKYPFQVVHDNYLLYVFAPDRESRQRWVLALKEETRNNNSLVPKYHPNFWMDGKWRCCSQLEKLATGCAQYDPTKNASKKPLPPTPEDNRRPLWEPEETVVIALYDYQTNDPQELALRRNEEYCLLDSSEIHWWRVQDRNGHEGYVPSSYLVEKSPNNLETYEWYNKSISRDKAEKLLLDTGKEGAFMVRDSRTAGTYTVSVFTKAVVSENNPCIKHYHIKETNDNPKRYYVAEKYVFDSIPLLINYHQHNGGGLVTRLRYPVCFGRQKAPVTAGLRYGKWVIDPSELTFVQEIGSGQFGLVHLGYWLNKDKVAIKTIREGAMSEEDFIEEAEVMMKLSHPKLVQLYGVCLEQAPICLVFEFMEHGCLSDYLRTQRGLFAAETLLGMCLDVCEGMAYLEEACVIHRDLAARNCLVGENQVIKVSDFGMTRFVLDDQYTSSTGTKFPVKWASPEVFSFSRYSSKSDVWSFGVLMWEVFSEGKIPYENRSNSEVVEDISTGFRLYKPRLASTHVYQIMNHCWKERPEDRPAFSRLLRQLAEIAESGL
IC50 (ITK) [nM],IC50 (JAK3) [nM],IC50 (BTK) [nM],IC50 (TXK) [nM],TXK/ITK (TXK),SMILES
< 10,100 to 1000,10 to 100,10 to 100,14.70,"C=CC(=O)N1CCN(C(=O)c2cc(Sc3cnc(NC(=O)c4ccsc4)s3)c(C)cc2OC)CC1(C)C [Compound 141, N-(5-((5-(4-acryloyl-3,3-dimethylpiperazine-1-carbonyl)-4-methoxy-2-methylphenyl)thio)thiazol-2-yl)thiophene-3-carboxamide]"
10 to 100,≥ 10000,100 to 1000,100 to 1000,7.6,C=CC(=O)N1CCCN(C(=O)c2cc(Cc3cnc(NC(=O)C4CC4)s3)c(C)cc2C)C[C@H]1C [Compound 127]
< 10,1000 to 10000,1000 to 10000,10 to 100,21.948,C=CC(=O)N1CCN(C(=O)c2cc(Sc3cnc(NC(=O)C4CCC4)s3)c(C)cc2OC)CC1 [Compound 84]
< 10,10 to 100,< 10,10 to 100,5.5925,C=CC(=O)N1CC[C@@H](N(C)C(=O)c2cc(Sc3cnc(NC(C)=O)s3)c(C)cc2OC)C1 [Compound 28]
< 10,1000 to 10000,100 to 1000,10 to 100,30.1,C=CC(=O)N1CCN(C(=O)c2cc(Sc3cnc(NC(=O)c4cnsc4)s3)c(C)cc2OC)C[C@H]1CC [Compound 114]
< 10,1000 to 10000,100 to 1000,1000 to 10000,168.17,C=CC(=O)N1CCCN(C(=O)c2cc(Sc3cnc(NC(=O)c4cccc(CN[C@H](C)C(C)(C)C)c4)s3)c(C)cc2OC)CC1 [Compound 56]
< 10,1000 to 10000,100 to 1000,100 to 1000,12.995,C=CC(=O)N1CCN(C(=O)c2cc(Sc3cnc(NC(=O)c4cn(C)cn4)s3)c(C)cc2OC)CC1 [Compound 97]
100 to 1000,≥ 10000,≥ 10000,≥ 10000,61.81,COc1cc(C)c(Sc2cnc(NC(=O)C3CC3)s2)cc1C(=O)N1CCCN(C(=O)/C=C/CN(C)C)[C@H](C)C1 [Compound 94]
< 10,10 to 100,10 to 100,10 to 100,13.5,C=CC(=O)N1CCN(C(=O)c2cc(Sc3cnc(Nc4ccccn4)s3)c(Cl)cc2C)CC1 [Compound 126]
< 10,10 to 100,< 10,< 10,1.1111,C=CC(=O)N1CCN(C(=O)c2cc(Sc3cnc(NC(=O)C4CC4)s3)c(C)cc2OC)C(C)(C)C1 [Compound 15]
< 10,100 to 1000,100 to 1000,10 to 100,20.879,C=CC(=O)N1CCCN(C(=O)c2cc(Sc3cnc(NC(=O)C4CC4)s3)c(C)cc2OC)CC1 [Compound 25]
< 10,100 to 1000,100 to 1000,10 to 100,33.582,C=CC(=O)N1CCN(C(=O)c2cc(Sc3cnc(NC(=O)c4cnsc4)s3)c(C)cc2OC)CC1 [Compound 85]
< 10,10 to 100,10 to 100,< 10,2.9,C=CC(=O)N1CCN(C(=O)c2cc(Sc3cnc(NC(=O)C4CC4)s3)c(C)cc2CC)CC1 [Compound 106]
< 10,100 to 1000,10 to 100,10 to 100,20.093,C=CC(=O)N1CCN(C(=O)c2cc(Sc3cnc(NC(=O)c4cnn(C)c4)s3)c(C)cc2OC)CC1 [Compound 91]

# The next lines start with the molecule.
SMILES,IC50 (ITK) [nM],IC50 (JAK3) [nM],IC50 (BTK) [nM],IC50 (TXK) [nM],TXK/ITK (TXK)
C=CC(=O)N1[C@@H]2CC[C@H]1CN(C(=O)c1cc(Sc3cnc(NC(=O)C4CC4)s3)c(C)cc1OC)C2 [Compound 18],< 10,10 to 100,10 to 100,< 10,2.8993
"C=CC(=O)N1CCN(C(=O)c2cc(Sc3cnc(Nc4ccccn4)s3)c(C)cc2OC)C[C@H]1C#N [Compound 153, (S)-1-acryloyl-4-(2-methoxy-4-methyl-5-((2-(pyridin-2-ylamino)thiazol-5-yl)thio)benzoyl)piperazine-2-carbonitrile]",< 10,< 10,< 10,,0.61
C=CC(=O)N1[C@@H]2CC[C@H]1CN(C(=O)c1cc(Sc3cnc(NC(C)=O)s3)c(C)cc1OC)C2 [Compound 8],< 10,100 to 1000,10 to 100,10 to 100,11.265
C=CC(=O)N1CCN(C(=O)c2cc(Sc3cnc(NC(C)=O)s3)c(C)cc2C)C[C@H]1C#N [Compound 119],< 10,< 10,10 to 100,< 10,3.2
C=CC(=O)N1C[C@@H]2C[C@H]1CN2C(=O)c1cc(Sc2cnc(NC(C)=O)s2)c(C)cc1OC [Compound 24],< 10,100 to 1000,10 to 100,10 to 100,6.6876
C=CC(=O)N1CCCN(C(=O)c2cc(Sc3cnc(NC(=O)C4CC4)s3)c(C)cc2OC)CCC1 [Compound 53],< 10,1000 to 10000,100 to 1000,100 to 1000,
C=CC(=O)N1CCCN(C(=O)c2cc(Sc3cnc(NC(=O)CN(C)C)s3)c(C)cc2OC)CC1 [Compound 35],100 to 1000,≥ 10000,≥ 10000,≥ 10000,48.433
C=CC(=O)N1CCN(C(=O)c2cc(Sc3cnc(NC(=O)c4cccnc4)s3)c(C)cc2OC)CC1 [Compound 89],< 10,1000 to 10000,100 to 1000,100 to 1000,45.743
"C=CC(=O)N1CCC2(C1)CN(C(=O)c1cc(Sc3cnc(Nc4ccccn4)s3)c(C)cc1OC)C2 [Compound 152, 1-(2-(2-methoxy-4-methyl-5-((2-(pyridin-2-ylamino)thiazol-5-yl)thio)benzoyl)-2,6-diazaspiro[3.4]octan-6-yl)prop-2-en-1-one]",< 10,100 to 1000,10 to 100,< 10,2.06
"C=CC(=O)N1CCCN(C(=O)c2cc(Sc3cnc(NC(=O)C4CC4)s3)c(C)cc2OC)C[C@H]1C(C)C [Compound 148, (R)-N-(5-((5-(4-acryloyl-3-isopropyl-1,4-diazepane-1-carbonyl)-4-methoxy-2-methylphenyl)thio)thiazol-2-yl)cyclopropanecarboxamide]",< 10,≥ 10000,100 to 1000,100 to 1000,82.31
C=CC(=O)N1CCCN(C(=O)c2cc(Sc3cnc(NC(C)=O)s3)c(C)cc2OC)CC1 [Compound 26],10 to 100,1000 to 10000,1000 to 10000,100 to 1000,26.486
C=CC(=O)N1C[C@H]2CC[C@@H](C1)N2C(=O)c1cc(Sc2cnc(NC(=O)C3CC3)s2)c(C)cc1OC [Compound 17],< 10,10 to 100,< 10,< 10,5.4235
C=CC(=O)N1CCCN(C(=O)c2cc(Sc3cnc(NC(=O)CC)s3)c(C)cc2OC)C[C@H]1C [Compound 47],10 to 100,≥ 10000,≥ 10000,≥ 10000,181.42
C=CC(=O)N1CCN(C(=O)c2cc(Sc3cnc(NC(=O)c4ccn(C)c4)s3)c(C)cc2OC)C[C@H]1CC [Compound 132],< 10,100 to 1000,100 to 1000,10 to 100,
"C=CC(=O)N1CCN(C(=O)c2cc(Sc3cnc(Nc4ccccn4)s3)c(C)cc2OC)[C@@H](C)C1 [Compound 151, (S)-1-(4-(2-methoxy-4-methyl-5-((2-(pyridin-2-ylamino)thiazol-5-yl)thio)benzoyl)-3-methylpiperazin-1-yl)prop-2-en-1-one]",< 10,10 to 100,10 to 100,< 10,6.43
C=CC(=O)N1CCCN(C(=O)c2cc(Sc3cnc(NC(=O)C(C)C)s3)c(C)cc2OC)CC1 [Compound 36],10 to 100,≥ 10000,1000 to 10000,1000 to 10000,72.34
C=CC(=O)N1CCN(C(=O)c2cc(Sc3cnc(NC(=O)C4CC4)s3)c(C)cc2Cl)C[C@H]1CC [Compound 99],10 to 100,100 to 1000,1000 to 10000,10 to 100,4.279
C=CC(=O)N1CCN(C(=O)c2cccc(Cc3cnc(NC(=O)C4CC4)s3)c2)CC1 [Compound 4],10 to 100,100 to 1000,100 to 1000,10 to 100,0.3296
C=CC(=O)N1CCCN(C(=O)c2cc(Sc3cnc(NC(=O)C4CCC4)s3)c(C)cc2OC)C[C@H]1C [Compound 86],10 to 100,≥ 10000,≥ 10000,1000 to 10000,227.64
"C=CC(=O)N1C[C@H]2CC[C@@H](C1)N2C(=O)c1cc(Sc2cnc(NC(=O)c3ccsc3)s2)c(C)cc1OC [Compound 143, N-(5-((5-((1R,5S)-3-acryloyl-3,8-diazabicyclo[3.2.1]octane-8-carbonyl)-4-methoxy-2-methylphenyl)thio)thiazol-2-yl)thiophene-3-carboxamide]",< 10,10 to 100,< 10,< 10,3.51
"C=CC(=O)N1CCN(C(=O)c2cc(Sc3cnc(NC(=O)c4ccsc4)s3)c(C)cc2OC)C(C)(C)C1 [Compound 142, N-(5-((5-(4-acryloyl-2,2-dimethylpiperazine-1-carbonyl)-4-methoxy-2-methylphenyl)thio)thiazol-2-yl)thiophene-3-carboxamide]",< 10,< 10,< 10,< 10,1.00
